Laboratory results published in patent publication US20140171319A1, “Aqueous Composition Comprising a Pesticide and a Base Selected from an Alkali Salt of Hydrogencarbonate” (BASF SE, priority 2011, published 2014).

Assays:
[1] = Volatility: loss of dicamba from aqueous tank mix on petri dish; assay type: physicochemical; details: 70° C., 24 h, atmospheric pressure
Description: The volatility was determined by analyzing the loss of material by HLPL at 70° C. after 24 h at atmospheric pressure. A sample of the aqueous tank mix (300 l/ha) was placed on the petri dish with a defined area (corresponding to a desired field application rate, such as 500 g/ha pesticide).
The application rate was 500 g/ha dicamba (free acid), 1000 g/ha potassium glyphosate, 300 g/ha Genamin® T050 (“Ad2”, 300 g/ha Preference® (“Ad3”) and optionally 250, 500 or 1000 g/ha K2CO3. Deionised water (hardness <1° dH) was used to prepare the samples. Dicamba BAPMA refers to the bis(3-aminopropyl)methylamine salt of dicamba.

pH of tank mix = assay type: physicochemical
Description: The liquid aqueous composition may have a pH value of at least pH 4.0, preferably of at least 6.0, better of at least 7.0, more preferably of at least 7.5, especially preferred of at least 8.0 and in particular of at least 8.5. The liquid aqueous composition may have a pH of up to 13.0, preferably of up to 11.0 and in particular of up to 9.0. The pH value is usually determined at 20° C.

Row | Structure (SMILES) | Loss of dicamba, Loss (wt %) ([1]; application rate 500 g/ha dicamba, tank mix 300 l/ha) | pH of tank mix (pH of tank mix; Example 6 tank mix, application rate 500 g/ha dicamba, 300 l/ha) | Loss of dicamba, Loss (wt %) ([1]; 500 g/ha dicamba (free acid), 1000 g/ha potassium glyphosate where Gly-K, deionised water) | pH of tank mix (pH of tank mix; Example 7 tank mix, 500 g/ha dicamba (free acid), deionised water (hardness <1° dH))
1 | COc1c(Cl)ccc(Cl)c1C(=O)O [Dicamba free acid, dicamba] | 80 wt % | 3.0 |  | 
2 | CN(CCCN)CCCN.COc1c(Cl)ccc(Cl)c1C(=O)O [Dicamba BAPMA, bis(3-aminopropyl)methylamine salt of dicamba] |  |  | <1 wt % | 6.3
